Data: ChEMBL document CHEMBL3407417 (J Med Chem, 2015)
≈ marks a conversion by molar mass, not a printed value.

How the values were obtained:
A549 = test: cells; conditions: Homo sapiens, A549, 72 h
[1] = Thermodynamic solubility of the compound in buffer containing 20 mmol/L of sodium taurocholate at pH 6.8; type: physicochemical; conditions: buffer containing 20 mmol/L sodium taurocholate, read-out: Therm_solubility
[2] = Stability in rat liver microsomes assessed as compound remaining after 30 mins; type: ADME; conditions: read-out: Stability
[3] = Plasma clearance in Sprague-Dawley rat at 0.5 mg/kg, iv; type: ADME, organism-based; design: dose 0.5 mg/kg, route intravenous
[4] = Volume of distribution at steady state in Sprague-Dawley rat at 0.5 mg/kg, iv; type: ADME, organism-based; design: dose 0.5 mg/kg, route intravenous; conditions: in vivo, read-out: Vdss
[5] = Oral bioavailability in Sprague-Dawley rat at 1 mg/kg; type: ADME, organism-based; conditions: in vivo
[6] = AUC in Sprague-Dawley rat at 1 mg/kg, po; type: ADME, organism-based; design: dose 1 mg/kg, route oral; conditions: plasma
[7] = Cmax in Sprague-Dawley rat at 1 mg/kg, po; type: ADME, organism-based; design: dose 1 mg/kg, route oral; conditions: in vivo
[8] = Cmax in BALB/c AJcl-nu/nu mouse at 10 mg/kg, po; type: ADME, organism-based; design: dose 10 mg/kg, route oral; conditions: in vivo
[9] = Cmax in BALB/c AJcl-nu/nu mouse at 100 mg/kg, po; type: ADME, organism-based; design: dose 100 mg/kg, route oral; conditions: in vivo
[10] = AUC in BALB/c AJcl-nu/nu mouse at 10 mg/kg, po; type: ADME, organism-based; design: dose 10 mg/kg, route oral; conditions: plasma
[11] = AUC in BALB/c AJcl-nu/nu mouse at 100 mg/kg, po; type: ADME, organism-based; design: dose 100 mg/kg, route oral; conditions: plasma
[12] = Tmax in BALB/c AJcl-nu/nu mouse at 10 mg/kg, po; type: ADME, organism-based; design: dose 10 mg/kg, route oral; conditions: in vivo
[13] = Tmax in BALB/c AJcl-nu/nu mouse at 100 mg/kg, po; type: ADME, organism-based; design: dose 100 mg/kg, route oral; conditions: in vivo
Plasma = test: Fraction unbound in rat plasma; type: ADME, cell-free
NCI-H460 [14] = test: Antitumor activity against human NCI-H460 cells xenografted in nude mouse assessed as tumor growth inhibition at 2.5 mg/kg, po qd for 2 weeks relative to control; type: functional
NCI-H460 [15] = test: Antitumor activity against human NCI-H460 cells xenografted in nude mouse assessed as tumor growth inhibition at 5 mg/kg, po qd for 2 weeks relative to control; type: functional
NCI-H460 [16] = test: Antitumor activity against human NCI-H460 cells xenografted in nude mouse assessed as tumor growth inhibition at 10 mg/kg, po qd for 2 weeks relative to control; type: functional
Mus musculus [17] = test: Toxicity in human NCI-H460 cells xenografted nude mouse assessed as body weight loss at 5 mg/kg, po qd for 2 weeks relative to control; type: organism-based; design: dose 5 mg/kg, route oral; conditions: in vivo, 336 h
Mus musculus [18] = test: Toxicity in human NCI-H460 cells xenografted nude mouse assessed as body weight loss at 10 mg/kg, po qd for 2 weeks relative to control; type: organism-based; design: dose 10 mg/kg, route oral; conditions: in vivo, 336 h
Mus musculus [19] = test: Toxicity in human NCI-H460 cells xenografted nude mouse assessed as mortality at 5 to 10 mg/kg, po qd for 2 weeks relative to control; type: organism-based; design: dose 5-10 mg/kg, route oral; conditions: in vivo, 336 h
Mus musculus [20] = test: Toxicity in human NCI-H460 cells xenografted nude mouse assessed as body weight loss at 2.5 mg/kg, po qd for 2 weeks relative to control; type: organism-based; design: dose 2.5 mg/kg, route oral; conditions: in vivo, 336 h
NCI-H358 = test: Antiproliferative activity against human NCI-H358 cells after 72 hrs by WST8 assay; type: functional, cell-based; conditions: NCI-H358, 72 h
MRC5 = test: Antiproliferative activity against human MRC5 cells after 72 hrs by WST8 assay; type: cell-based; conditions: MRC5, 72 h
cells [21] = conditions: Homo sapiens, LU-99A, 72 h
Description: Antiproliferative activity against human LU99A cells after 72 hrs by WST8 assay

cells [22] = conditions: Homo sapiens, Lu116, 72 h
Description: Antiproliferative activity against human Lu116 cells after 72 hrs by WST8 assay

cells [23] = conditions: Homo sapiens, LC-2-ad, 72 h
Description: Antiproliferative activity against human LC2/ad cells after 72 hrs by WST8 assay

cells [24] = conditions: Homo sapiens, PC-14, 72 h
Description: Antiproliferative activity against human PC14 cells after 72 hrs by WST8 assay

cells [25] = conditions: Homo sapiens, HCT-15, 72 h
Description: Antiproliferative activity against human HCT15 cells after 72 hrs by WST8 assay

cells [26] = conditions: Homo sapiens, HCT-116, 72 h
Description: Antiproliferative activity against human HCT116 cells after 72 hrs by WST8 assay

HT-29 = test: cells; conditions: Homo sapiens, HT-29, 72 h
Description: Antiproliferative activity against human HT-29 cells after 72 hrs by WST8 assay

cells [27] = conditions: Homo sapiens, MIA PaCa-2, 72 h
Description: Antiproliferative activity against human MIAPaCa2 cells after 72 hrs by WST8 assay

cells [28] = conditions: Homo sapiens, GSS, 72 h
Description: Antiproliferative activity against human GSS cells after 72 hrs by WST8 assay

cells [29] = conditions: Homo sapiens, MKN-45, 72 h
Description: Antiproliferative activity against human MKN45 cells after 72 hrs by WST8 assay

cells [30] = conditions: Homo sapiens, HL-60, 72 h
Description: Antiproliferative activity against human HL60 cells after 72 hrs by WST8 assay

NCI-H460 [31] = test: cells; conditions: Homo sapiens, NCI-H460, 72 h
Description: Antiproliferative activity against human NCI-H460 cells after 72 hrs by WST8 assay

| Compound | solubility thermodynamic [1] [µg/mL] | remaining at 0.5 h [2] [%] | clearance [3] [mL/min/kg] | Vd [4] [L/kg] | bioavailability [5] [%] | AUC [6] [ng·h/mL] | Cmax [7] [ng/mL] | further results |
| --- | --- | --- | --- | --- | --- | --- | --- | --- |
| O=C(NC1CC1)c1ccc(-c2cnc3c(NCC4CCOCC4)nccn23)cc1 | – | – | – | – | – | – | – | IC50 (A549): 1500 nM |
| N#Cc1ccc(-c2cn3c(-c4ccc(C(=O)NC5CC5)cc4)cnc3c(NCC3CCOCC3)n2)cc1 | 1 (≈ 2.03 µM) | 0 | 145 | 5 | 0 | – | – | – |
| N#Cc1ccc(-c2cc(NCC3CCOCC3)c3ncc(-c4ccc(C(=O)NC5CC5)cc4)n3n2)cc1 | 0.49 (≈ 0.995 µM) | 42 | 38 | 4.2 | 0 | – | – | – |
| N#Cc1ccc(-c2cc(NCC3CCOCC3)c3ncc(-c4ccc(C(=O)NC5CC5)cc4)n3n2)c(N)c1 | 2.6 (≈ 5.12 µM) | 59 | 23 | 2 | 0 | – | – | – |
| O=C(NC1CC1)c1ccc(-c2cnc3c(NCC4CCOCC4)cc(OC4CCCCC4)nn23)cc1 | 10 (≈ 20.4 µM) | 55 | 8.7 | 1.6 | 23 | 439 | 33 | – |
| O=C(NC1CC1)c1ccc(-c2cnc3c(NCC4CCOCC4)cc(Oc4ccccc4F)nn23)cc1 | 8 (≈ 16 µM) | 39 | 22 | 2 | 16 | 126 | 16 | – |
| O=C(NC1CC1)c1ccc(-c2cnc3c(NCC4CCOCC4)cc(Oc4ccccc4O)nn23)cc1 | 1.3 (≈ 2.6 µM) | 21 | 78 | 2.2 | 0 | – | – | – |
| CC(C)(C)Nc1cc(NCC2CCOCC2)c2ncc(-c3ccc(C(=O)NC4CC4)cc3)n2n1 | 63 (≈ 136 µM) | 59 | 16 | 1.7 | 36 | 377 | 50 | – |
| CC(C)(Nc1cc(NCC2CCOCC2)c2ncc(-c3ccc(C(=O)NC4CC4)cc3)n2n1)C(F)(F)F | 29 (≈ 56.1 µM) | 41 | 11 | 1.3 | 24 | 360 | 38 | Cmax [8]: 2430 ng/mL; Cmax [9]: 14000 ng/mL; AUC [10]: 8000 ng·h/mL; AUC [11]: 48500 ng·h/mL; Tmax [12]: 30 min; Tmax [13]: 60 min; Fu (Plasma): 0.51%; T/C (NCI-H460 [14]): 57%; T/C (NCI-H460 [15]): 40%; T/C (NCI-H460 [16]): 19%; Activity (Mus musculus [17]): 25%; Activity (Mus musculus [18]): 32%; Activity (Mus musculus [19]): Toxic; Activity (Mus musculus [20]): Non-toxic |
| COc1cc(Nc2ncc3c(n2)-c2ccc(Cl)cc2C(c2c(F)cccc2OC)=NC3)ccc1C(=O)O [ALISERTIB] | – | – | – | – | – | – | – | IC50 (NCI-H358): 100 nM; IC50 (MRC5): > 10000 nM; IC50 (cells [21]): 62 nM; IC50 (cells [22]): 97 nM; IC50 (cells [23]): 77 nM; IC50 (cells [24]): 170 nM; IC50 (cells [25]): 740 nM; IC50 (cells [26]): 95 nM; IC50 (HT-29): 330 nM; IC50 (cells [27]): 130 nM; IC50 (cells [28]): 39 nM; IC50 (cells [29]): 93 nM; IC50 (cells [30]): 74 nM |
| CC(=O)O[C@H]1C(=O)[C@@]2(C)[C@H]([C@H](OC(=O)c3ccccc3)[C@]3(O)C[C@H](OC(=O)[C@H](O)[C@@H](NC(=O)c4ccccc4)c4ccccc4)C(C)=C1C3(C)C)[C@]1(OC(C)=O)CO[C@@H]1C[C@@H]2O [PACLITAXEL] | – | – | – | – | – | – | – | IC50 (NCI-H358): 7.9 nM; IC50 (MRC5): 80 nM; IC50 (NCI-H460 [31]): 10 nM; IC50 (cells [21]): 5.2 nM; IC50 (cells [22]): 5.1 nM; IC50 (cells [23]): 2.5 nM; IC50 (cells [24]): 4.4 nM; IC50 (cells [25]): 240 nM; IC50 (cells [26]): 6.1 nM; IC50 (HT-29): 7 nM; IC50 (cells [27]): 6.1 nM; IC50 (cells [28]): 3.4 nM; IC50 (cells [29]): 4 nM; IC50 (cells [30]): 7.9 nM |
